Measured values: patent publication US7238694B2, “Rifamycin imino derivatives effective against drug-resistant microbes” (Cumbre Pharmaceuticals, Inc., priority 2004, dated 2007)
Converted amounts (≈) assume the structure as drawn.

Key:
Format in all cases: cell-based
[1] = test system: Staphylococcus aureus ATCC29213 rpoB^H418Y; assay: microbe, parasite or virus in culture; details: Staphylococcus aureus, ATCC29213; rifR strain; Cation-Adjusted Mueller-Hinton Broth, 37° C.; read-out: MIC
[2] = test system: Staphylococcus aureus MT1222 gyrA^A116E grlB^S80F; assay: microbe, parasite or virus in culture; details: cipR strain, Cation-Adjusted Mueller-Hinton Broth, 37° C., read-out: MIC
[3] = test system: Staphylococcus aureus ATCC29213; assay: MIC, microbroth dilution (NCCLS); details: rifS strain, Cation-Adjusted Mueller-Hinton Broth, 37° C., read-out: MIC
[4] = test system: Haemophilus influenzae ATCC10211; assay: MIC, microbroth dilution (NCCLS); details: rifS strain, BHI Broth with NAD and hematin, 37° C., read-out: MIC
[5] = test system: Staphylococcus epidermidis ATCC12228; assay: MIC, microbroth dilution (NCCLS); details: rifS strain, Cation-Adjusted Mueller-Hinton Broth, 37° C., read-out: MIC
[6] = test system: Streptococcus pneumoniae ATCC6303; assay: MIC, microbroth dilution (NCCLS); details: rifS strain, THY Broth with 1 mg/mL catalase, 5% CO2, 37° C., read-out: MIC
[7] = test system: Streptococcus pyogenes ATCC19615; assay: MIC, microbroth dilution (NCCLS); details: rifS strain, THY Broth, 37° C., read-out: MIC

CO[C@H]1/C=C/O[C@@]2(C)Oc3c(C)c(O)c4c(O)c(c(/C=N/N(C5CCN(C)CC5)C5CCN(c6cc7c(cc6F)c(=O)c(C(=O)O)cn7C6CC6)C5)c(O)c4c3C2=O)NC(=O)/C(C)=C\C=C\[C@H](C)[C@H](O)[C@@H](C)[C@@H](O)[C@@H](C)[C@H](OC(C)=O)[C@@H]1C (mixture of isomers) [Example 11, (R/S)-3-[1-(3-Carboxy-1-cyclopropyl-6-fluoro-4-oxo-1,4-dihydroquinolin-7-yl)-pyrrolidin-3-yl-N′-(1-methyl-piperidin-4-yl)-hydrazinomethylenyl]rifamycin SV]
MIC [1]: 0.06 to 16 µg/mL (≈ 0.0521 to 13.9 µM) | MIC [2]: 0.008 to 0.125 µg/mL (≈ 0.00695 to 0.109 µM) | MIC [3]: 0.008 to 1 µg/mL (≈ 0.00695 to 0.869 µM) | MIC [4]: 0.125 to 4 µg/mL (≈ 0.109 to 3.47 µM) | MIC [5]: 0.008 to 0.1 µg/mL (≈ 0.00695 to 0.0869 µM) | MIC [6]: 0.008 to 0.06 µg/mL (≈ 0.00695 to 0.0521 µM) | MIC [7]: 0.008 to 0.03 µg/mL (≈ 0.00695 to 0.0261 µM)

CO[C@H]1/C=C/O[C@@]2(C)Oc3c(C)c(O)c4c(O)c(c(/C=N/NCC5CCN(c6c(F)cc7c(=O)c(C(=O)O)cn(C8CC8)c7c6Cl)C5)c(O)c4c3C2=O)NC(=O)/C(C)=C\C=C\[C@H](C)[C@H](O)[C@@H](C)[C@@H](O)[C@@H](C)[C@H](OC(C)=O)[C@@H]1C (mixture of isomers) [Example 39, (R/S)-3-[1-(3-Carboxy-8-chloro-1-cyclopropyl-6-fluoro-4-oxo-1,4-dihydroquinolin-7-yl)-pyrrolidin-3-yl-methyl-hydrazino-methylenyl]-rifamycin SV]
MIC [1]: 0.06 to 16 µg/mL (≈ 0.0544 to 14.5 µM) | MIC [2]: 0.008 to 0.125 µg/mL (≈ 0.00726 to 0.113 µM) | MIC [3]: 0.008 to 1 µg/mL (≈ 0.00726 to 0.907 µM) | MIC [4]: 0.125 to 4 µg/mL (≈ 0.113 to 3.63 µM) | MIC [5]: 0.008 to 0.1 µg/mL (≈ 0.00726 to 0.0907 µM) | MIC [6]: 0.008 to 0.06 µg/mL (≈ 0.00726 to 0.0544 µM) | MIC [7]: 0.008 to 0.03 µg/mL (≈ 0.00726 to 0.0272 µM)

COc1c(N2CCN(/N=C/c3c4c(O)c5c(O)c(C)c6c(c5c3O)C(=O)[C@@](C)(O/C=C/[C@H](OC)[C@@H](C)[C@@H](OC(C)=O)[C@H](C)[C@H](O)[C@H](C)[C@@H](O)[C@@H](C)/C=C/C=C(/C)C(=O)N4)O6)C(C)C2)c(F)cc2c(=O)c(C(=O)O)cn(C3CC3)c12 (mixture of isomers) [Example 7, (R/S)-3-[4-(3-Carboxy-1-cyclopropyl-6-fluoro-8-methoxy-4-oxo-1,4-dihydroquinolin-7-yl)-2-methyl-piperazin-1-yl-aminomethylenyl]rifamycin SV]
MIC [1]: 0.06 to 16 µg/mL (≈ 0.0546 to 14.6 µM) | MIC [2]: 0.008 to 0.125 µg/mL (≈ 0.00728 to 0.114 µM) | MIC [3]: 0.008 to 1 µg/mL (≈ 0.00728 to 0.911 µM) | MIC [4]: 0.125 to 4 µg/mL (≈ 0.114 to 3.64 µM) | MIC [5]: 0.008 to 0.1 µg/mL (≈ 0.00728 to 0.0911 µM) | MIC [6]: 0.008 to 0.06 µg/mL (≈ 0.00728 to 0.0546 µM) | MIC [7]: 0.008 to 0.03 µg/mL (≈ 0.00728 to 0.0273 µM)

CCn1cc(C(=O)O)c(=O)c2cc(F)c(N3CCN(/N=C/c4c5c(O)c6c(O)c(C)c7c(c6c4O)C(=O)[C@@](C)(O/C=C/[C@H](OC)[C@@H](C)[C@@H](OC(C)=O)[C@H](C)[C@H](O)[C@H](C)[C@@H](O)[C@@H](C)/C=C/C=C(/C)C(=O)N5)O7)CC3)nc21 [Example 19, 3-[4-(3-Carboxy-1-ethyl-6-fluoro-4-oxo-1,4-dihydro-[1,8]naphthyridine-7-yl)-piperazin-1-yl-aminomethylenyl]-rifamycin SV]
MIC [1]: 0.06 to 16 µg/mL (≈ 0.0575 to 15.3 µM) | MIC [2]: 0.008 to 0.125 µg/mL (≈ 0.00767 to 0.12 µM) | MIC [3]: 0.008 to 1 µg/mL (≈ 0.00767 to 0.959 µM) | MIC [4]: 0.125 to 4 µg/mL (≈ 0.12 to 3.83 µM) | MIC [5]: 0.008 to 0.1 µg/mL (≈ 0.00767 to 0.0959 µM) | MIC [6]: 0.008 to 0.06 µg/mL (≈ 0.00767 to 0.0575 µM) | MIC [7]: 0.008 to 0.03 µg/mL (≈ 0.00767 to 0.0288 µM)

CCn1cc(C(=O)O)c(=O)c2cc(F)c(N3CCN(/N=C/c4c5c(O)c6c(O)c(C)c7c(c6c4O)C(=O)[C@@](C)(O/C=C/[C@H](OC)[C@@H](C)[C@@H](OC(C)=O)[C@H](C)[C@H](O)[C@H](C)[C@@H](O)[C@@H](C)/C=C/C=C(/C)C(=O)N5)O7)C(C)C3)c(F)c21 (mixture of isomers) [Example 8, (R/S)-3-[4-(3-Carboxy-1-ethyl-6,8-difluoro-8-4-oxo-1,4-dihydroquinolin-7-yl)-2-methyl-piperazin-1-yl-aminomethylenyl]rifamycin SV]
MIC [1]: 0.06 to 16 µg/mL (≈ 0.0559 to 14.9 µM) | MIC [2]: 0.008 to 0.125 µg/mL (≈ 0.00745 to 0.116 µM) | MIC [3]: 0.008 to 1 µg/mL (≈ 0.00745 to 0.931 µM) | MIC [4]: 0.125 to 4 µg/mL (≈ 0.116 to 3.72 µM) | MIC [5]: 0.008 to 0.1 µg/mL (≈ 0.00745 to 0.0931 µM) | MIC [6]: 0.008 to 0.06 µg/mL (≈ 0.00745 to 0.0559 µM) | MIC [7]: 0.008 to 0.03 µg/mL (≈ 0.00745 to 0.0279 µM)

COc1c(N2CC3CCCN(/N=C/C4=C5NC(=O)/C(C)=C\C=C\[C@H](C)[C@H](O)[C@@H](C)[C@@H](O)[C@@H](C)[C@H](OC(C)=O)[C@H](C)[C@@H](OC)/C=C/O[C@@]6(C)Oc7c(C)c(O)c(c(c7C6=O)C4=O)C5=O)C3C2)c(F)cc2c(=O)c(C(=O)O)cn(C3CC3)c12 (stereo partly shown) [Example 13, 3-[6-(3-Carboxy-1-cyclopropyl-6-fluoro-8-methoxy-4-oxo-1,4-dihydroquinolin-7-yl)-octahydropyrrolo[3,4-b]pyridin-1-yl-aminomethylenyl]rifamycin S]
MIC [1]: 0.06 to 16 µg/mL (≈ 0.0535 to 14.3 µM) | MIC [2]: 0.008 to 0.125 µg/mL (≈ 0.00713 to 0.111 µM) | MIC [3]: 0.008 to 1 µg/mL (≈ 0.00713 to 0.891 µM) | MIC [4]: 0.125 to 4 µg/mL (≈ 0.111 to 3.56 µM) | MIC [5]: 0.008 to 0.1 µg/mL (≈ 0.00713 to 0.0891 µM) | MIC [6]: 0.008 to 0.06 µg/mL (≈ 0.00713 to 0.0535 µM) | MIC [7]: 0.008 to 0.03 µg/mL (≈ 0.00713 to 0.0267 µM)

CO[C@H]1/C=C/O[C@@]2(C)Oc3c(C)c(O)c4c(c3C2=O)C(=O)C(/C=N/N2CCN(c3cc5c(cc3F)c(=O)c(C(=O)O)cn5C3CC3)CC2)=C(NC(=O)/C(C)=C\C=C\[C@H](C)[C@H](O)[C@@H](C)[C@@H](O)[C@@H](C)[C@H](OC(C)=O)[C@@H]1C)C4=O [Example 5, 3-[4-(3-Carboxy-1-cyclopropl-6-fluoro-4-oxo-1,4-dihydroquinolin-7-yl)-piperazin-1-yl-aminomethylenyl]rifamycin S]
MIC [1]: 0.06 to 16 µg/mL (≈ 0.057 to 15.2 µM) | MIC [2]: 0.008 to 0.125 µg/mL (≈ 0.0076 to 0.119 µM) | MIC [3]: 0.008 to 1 µg/mL (≈ 0.0076 to 0.95 µM) | MIC [4]: 0.125 to 4 µg/mL (≈ 0.119 to 3.8 µM) | MIC [5]: 0.008 to 0.1 µg/mL (≈ 0.0076 to 0.095 µM) | MIC [6]: 0.008 to 0.06 µg/mL (≈ 0.0076 to 0.057 µM) | MIC [7]: 0.008 to 0.03 µg/mL (≈ 0.0076 to 0.0285 µM)
